This note sets out measurements from patent US10357493B2, “Metalloenzyme inhibitor compounds” (Selenity Therapeutics (Bermuda), Ltd., priority 2017, dated 2019).

The target in one test is HDAC1 (Homo sapiens (Human), UniProt Q13547). The test is described as follows: HDAC1 enzymatic assay. Format: biochemical. To be noted: read-out: Human HDAC1 IC50. How it is done: (§1) All enzymatic reactions were conducted in duplicate at room temperature for 17 hours in a 50 μl mixture containing HDAC assay buffer (50 mM Tris-HCl, pH 7.4, 137 mM NaCl, 2.7 mM KCl, 0.05% Tween 20, 5 μg BSA), an HDAC substrate, an HDAC enzyme, and a test compound. Compound dilution was prepared ten-fold higher than the final concentration of the compounds with 10% DMSO in HDAC assay buffer and 5 μl of the dilution was added to a 50 μl reaction so that the final concentration of DMSO is 1% in all of reactions. After enzymatic reactions, 50 μl of HDAC Developer was added to each well and the plate was incubated at room temperature for an additional 20 minutes. Fluorescence intensity was measured at an excitation of 360 nm and an emission of 460 nm using a Tecan Infinite M1000 or Biotek Synergy microplate reader.
(§2) The fluorescent intensity data were analyzed using the computer software, Graphpad Prism. In the absence of the compound, the fluorescent intensity (Ft) in each data set was defined as 100% activity. In the absence of HDAC, the fluorescent intensity (Fb) in each data set was defined as 0% activity. The percent activity in the presence of each compound was calculated according to the following equation: % activity=(F−Fb)/(Ft−Fb), where F=the fluorescent intensity in the presence of the compound.
(§3) The values of % activity versus a series of compound concentrations were then plotted using non-linear regression analysis of Sigmoidal dose-response curve generated with the equation Y=B+(T−B)/1+10((Log EC50−X)×Hill Slope), where Y=percent activity, B=minimum percent activity, T=maximum percent activity, X=logarithm of compound and Hill Slope=slope factor or Hill coefficient. The IC50 value was determined by the concentration causing a half-maximal percent activity.
(§4) HDAC1 enzymatic assays contained 0.5 ng HDAC1 and 10 uM of HDAC substrate. HDAC2 enzymatic assays contained 0.5 ng HDAC2 and 10 uM of HDAC substrate. HDAC3 enzymatic assays contained 0.4 ng HDAC3/NCOR2 and 10 uM of HDAC substrate. HDAC4 enzymatic assays contained 0.02 ng HDAC4 and 2 uM of HDAC substrate. HDAC5 enzymatic assays contained 0.5 ng HDAC5 and 2 uM of HDAC substrate. HDAC6 enzymatic assays contained 2 ng HDAC6 and 10 uM of HDAC substrate. HDAC7 enzymatic assays contained 0.05 ng HDAC7 and 2 uM of HDAC substrate. HDAC8 enzymatic assays contained 5 ng HDAC8 and 2 uM of HDAC substrate. HDAC9 enzymatic assays contained 1 ng HDAC9 and 2 uM of HDAC substrate. HDAC10 enzymatic assays contained 75 ng HDAC10 and 10 uM of HDAC substrate. HDAC11 enzymatic assays contained 5 ng HDAC11 and 2 uM of HDAC substrate.

In a further test the target is HDAC6 (Homo sapiens (Human), UniProt Q9UBN7). The test is described as follows: HDAC6 enzymatic assay. In kind it is biochemical. To be noted: read-out: Human HDAC6 IC50. How it is done:
as §1, §2, §3, §4

A value given as a limit tells only on which side of the number the result lay.

Sequence of HDAC1 (Q13547 whole entry): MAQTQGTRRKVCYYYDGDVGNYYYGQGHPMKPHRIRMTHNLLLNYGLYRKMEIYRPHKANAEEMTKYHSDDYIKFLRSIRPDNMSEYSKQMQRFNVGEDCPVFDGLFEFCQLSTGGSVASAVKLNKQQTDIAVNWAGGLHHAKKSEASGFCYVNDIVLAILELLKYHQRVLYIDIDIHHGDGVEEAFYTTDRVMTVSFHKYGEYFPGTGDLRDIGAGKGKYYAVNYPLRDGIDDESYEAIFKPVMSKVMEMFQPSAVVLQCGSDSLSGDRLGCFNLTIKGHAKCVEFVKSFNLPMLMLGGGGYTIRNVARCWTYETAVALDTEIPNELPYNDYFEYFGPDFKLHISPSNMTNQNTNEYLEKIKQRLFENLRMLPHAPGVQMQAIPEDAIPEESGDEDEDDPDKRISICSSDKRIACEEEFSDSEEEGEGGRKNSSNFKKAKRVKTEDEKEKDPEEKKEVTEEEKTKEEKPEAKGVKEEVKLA
Sequence of HDAC6 (Q9UBN7 whole entry): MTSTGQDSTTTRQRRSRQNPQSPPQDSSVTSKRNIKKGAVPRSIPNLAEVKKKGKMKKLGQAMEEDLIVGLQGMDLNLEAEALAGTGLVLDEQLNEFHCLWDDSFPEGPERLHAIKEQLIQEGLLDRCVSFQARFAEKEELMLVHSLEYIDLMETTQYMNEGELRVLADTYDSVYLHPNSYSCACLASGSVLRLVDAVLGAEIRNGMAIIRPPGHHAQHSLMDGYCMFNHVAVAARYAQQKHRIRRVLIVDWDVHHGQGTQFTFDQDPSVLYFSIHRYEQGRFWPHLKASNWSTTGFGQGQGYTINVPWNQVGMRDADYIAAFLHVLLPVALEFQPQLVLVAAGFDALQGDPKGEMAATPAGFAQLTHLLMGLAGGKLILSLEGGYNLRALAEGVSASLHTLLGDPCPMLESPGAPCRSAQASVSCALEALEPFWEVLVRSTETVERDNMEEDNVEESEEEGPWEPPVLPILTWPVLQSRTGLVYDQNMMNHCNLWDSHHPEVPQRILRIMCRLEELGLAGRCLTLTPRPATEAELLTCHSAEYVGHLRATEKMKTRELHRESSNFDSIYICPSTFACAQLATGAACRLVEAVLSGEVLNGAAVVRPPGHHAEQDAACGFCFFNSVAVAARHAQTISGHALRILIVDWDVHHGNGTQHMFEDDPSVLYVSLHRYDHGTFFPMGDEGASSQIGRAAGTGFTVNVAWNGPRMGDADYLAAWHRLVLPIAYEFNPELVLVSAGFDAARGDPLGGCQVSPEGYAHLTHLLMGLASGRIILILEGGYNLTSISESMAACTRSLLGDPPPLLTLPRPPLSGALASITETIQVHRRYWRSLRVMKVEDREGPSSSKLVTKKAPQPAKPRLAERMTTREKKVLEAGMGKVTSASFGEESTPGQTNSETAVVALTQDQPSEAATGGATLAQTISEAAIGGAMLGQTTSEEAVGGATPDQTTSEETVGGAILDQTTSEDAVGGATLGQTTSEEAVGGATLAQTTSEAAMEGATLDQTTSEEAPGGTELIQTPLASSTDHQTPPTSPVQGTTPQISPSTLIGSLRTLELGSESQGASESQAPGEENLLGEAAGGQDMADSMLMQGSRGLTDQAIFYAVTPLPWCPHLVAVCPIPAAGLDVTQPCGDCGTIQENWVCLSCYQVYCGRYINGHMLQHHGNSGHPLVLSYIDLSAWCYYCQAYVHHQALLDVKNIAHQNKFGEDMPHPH

The IC50 is the concentration needed to halve the response being measured. Regarding `Fc1ccc(C(Cn2cnc(C(F)(F)F)c2)Nc2ncc(-c3nnc(C(F)F)o3)cn2)cc1` (single isomer, unassigned) [175(+), 5-(5-(difluoromethyl)-1,3,4-oxadiazol-2-yl)-N-(1-(4-fluorophenyl)-2-(4-(trifluoromethyl)-1H-imidazol-1-yl)ethyl)pyrimidin-2-amine], the IC50 is more than 30000 nM on HDAC1 and 160 nM at HDAC6.
The like results for `Fc1ccc(C(Cn2cnc(C(F)(F)F)c2)Nc2ncc(-c3nnc(C(F)F)o3)cn2)cc1` (single isomer, unassigned) [175(−), 5-(5-(difluoromethyl)-1,3,4-oxadiazol-2-yl)-N-(1-(4-fluorophenyl)-2-(4-(trifluoromethyl)-1H-imidazol-1-yl)ethyl)pyrimidin-2-amine] were, in that order, more than 30000 nM and 1500 nM.
Turning to `Fc1ccc(C(Cn2cc(C(F)(F)F)cn2)Nc2ncc(-c3nnc(C(F)F)o3)cn2)cc1` (single isomer, unassigned) [176(+), 5-(5-(difluoromethyl)-1,3,4-oxadiazol-2-yl)-N-(1-(4-fluorophenyl)-2-(4-(trifluoromethyl)-1H-pyrazol-1-yl)ethyl)pyrimidin-2-amine], the IC50 was more than 30000 nM on HDAC1 and 160 nM at HDAC6.
On the same counts, the results for `Fc1ccc(C(Cn2cc(C(F)(F)F)cn2)Nc2ncc(-c3nnc(C(F)F)o3)cn2)cc1` (single isomer, unassigned) [176(−), 5-(5-(difluoromethyl)-1,3,4-oxadiazol-2-yl)-N-(1-(4-fluorophenyl)-2-(4-(trifluoromethyl)-1H-pyrazol-1-yl)ethyl)pyrimidin-2-amine] are more than 30000 nM and 1500 nM.
On the same counts, the results for `O=C1CCCN1CC(Nc1ncc(-c2nnc(C(F)F)o2)cn1)c1ccc(F)cc1` (single isomer, unassigned) [177(+), 1-(2-((5-(5-(difluoromethyl)-1,3,4-oxadiazol-2-yl)pyrimidin-2-yl)amino)-2-(4-fluorophenyl)ethyl)pyrrolidin-2-one] are more than 30000 nM and 110 nM.
On the same counts, the results for `O=C1CCCN1CC(Nc1ncc(-c2nnc(C(F)F)o2)cn1)c1ccc(F)cc1` (single isomer, unassigned) [177(−), 1-(2-((5-(5-(difluoromethyl)-1,3,4-oxadiazol-2-yl)pyrimidin-2-yl)amino)-2-(4-fluorophenyl)ethyl)pyrrolidin-2-one] are more than 30000 nM and 76 nM.
For the compound `CC(NS(C)(=O)=O)C(Nc1ncc(-c2nnc(C(F)F)o2)cn1)c1ccc(F)cc1` (single isomer, unassigned) [Example 127A, N-(1-((5-(5-(difluoromethyl)-1,3,4-oxadiazol-2-yl)pyrimidin-2-yl)amino)-1-(4-fluorophenyl)propan-2-yl)methanesulfonamide], the results for the IC50 at HDAC1 and on HDAC6 were more than 30000 nM and 45 nM, respectively.
As to `CC(NS(C)(=O)=O)C(Nc1ncc(-c2nnc(C(F)F)o2)cn1)c1ccc(F)cc1` (single isomer, unassigned) [Example 127B, N-(1-((5-(5-(difluoromethyl)-1,3,4-oxadiazol-2-yl)pyrimidin-2-yl)amino)-1-(4-fluorophenyl)propan-2-yl)methanesulfonamide], the concentration for half-maximal inhibition (IC50) on HDAC1 is more than 30000 nM; at HDAC6, 49 nM.
The like results for `Fc1ccc(C(COC2CC2)Nc2ncc(-c3nnc(C(F)F)o3)cn2)c(F)c1` (single isomer, unassigned) [Example 134A, N-(2-cyclopropoxy-1-(2,4-difluorophenyl)ethyl)-5-(5-(difluoromethyl)-1,3,4-oxadiazol-2-yl)pyrimidin-2-amine] were, in that order, more than 30000 nM and 220 nM.
For the compound `Fc1ccc(C(CC(F)(F)F)Nc2ncc(-c3nnc(C(F)F)o3)cn2)cc1` (single isomer, unassigned; (+)) [13(+), (+)-5-(5-(difluoromethyl)-1,3,4-oxadiazol-2-yl)-N-(3,3,3-trifluoro-1-(4-fluorophenyl)propyl)pyrimidin-2-amine], the IC50 at HDAC1 was more than 30000 nM; at HDAC6 it was 30 nM.
As for `CC(Nc1ncc(-c2nnc(C(F)F)o2)cn1)c1ccc(F)cc1` (single isomer, unassigned; (+)) [20(+), (+)-5-(5-(difluoromethyl)-1,3,4-oxadiazol-2-yl)-N-(1-(4-fluorophenyl)ethyl)pyrimidin-2-amine], the results for the IC50 at HDAC1 and at HDAC6 were more than 30000 nM and 21 nM, respectively.
For `CC(Nc1ncc(-c2nnc(C(F)F)o2)cn1)c1c(F)cccc1F` (single isomer, unassigned; (+)) [100(+), (+)-5-(5-(difluoromethyl)-1,3,4-oxadiazol-2-yl)-N-(1-(2,6-difluorophenyl)ethyl)pyrimidin-2-amine], the half-maximal inhibitory concentration (IC50) was more than 30000 nM at HDAC1 and 30 nM on HDAC6.
The like results for `O=S1(=O)CCCN1CC(Nc1ncc(-c2nnc(C(F)F)o2)cn1)c1ccc(F)cc1` (single isomer, unassigned; (+)) [120(+), (+)-2-(2-((5-(5-(difluoromethyl)-1,3,4-oxadiazol-2-yl)pyrimidin-2-yl)amino)-2-(4-fluorophenyl)ethyl)isothiazolidine 1,1-dioxide] were, in that order, more than 30000 nM and 37 nM.
As for `Fc1ccc(C(CC(F)(F)F)Nc2ncc(-c3nnc(C(F)F)o3)cn2)cc1` (single isomer, unassigned; (-)) [13(−), (−)-5-(5-(difluoromethyl)-1,3,4-oxadiazol-2-yl)-N-(3,3,3-trifluoro-1-(4-fluorophenyl)propyl)pyrimidin-2-amine], the figures for the IC50 on HDAC1 and at HDAC6 were more than 30000 nM and 550 nM, respectively.
With `CC(Nc1ncc(-c2nnc(C(F)F)o2)cn1)c1ccc(F)cc1` (single isomer, unassigned; (-)) [20(−), (−)-5-(5-(difluoromethyl)-1,3,4-oxadiazol-2-yl)-N-(1-(4-fluorophenyl)ethyl)pyrimidin-2-amine], the IC50 is more than 30000 nM at HDAC1 and more than 1000 nM at HDAC6.
As to `CC(Nc1ncc(-c2nnc(C(F)F)o2)cn1)c1c(F)cccc1F` (single isomer, unassigned; (-)) [100(−), (−)-5-(5-(difluoromethyl)-1,3,4-oxadiazol-2-yl)-N-(1-(2,6-difluorophenyl)ethyl)pyrimidin-2-amine], the figures for the half-maximal inhibitory concentration (IC50) at HDAC1 and at HDAC6 were more than 30000 nM and more than 1000 nM, respectively.
With `O=S1(=O)CCCN1CC(Nc1ncc(-c2nnc(C(F)F)o2)cn1)c1ccc(F)cc1` (single isomer, unassigned; (-)) [120(−), (−)-2-(2-((5-(5-(difluoromethyl)-1,3,4-oxadiazol-2-yl)pyrimidin-2-yl)amino)-2-(4-fluorophenyl)ethyl)isothiazolidine 1,1-dioxide], the IC50 on HDAC1 was more than 30000 nM; on HDAC6 it was 150 nM.
For the compound `CS(=O)(=O)N(CC(Nc1ncc(-c2nnc(C(F)F)o2)cn1)c1ccc(F)cc1F)CC(F)(F)F` (stereo not drawn) [138(+), N-(2-((5-(5-(difluoromethyl)-1,3,4-oxadiazol-2-yl)pyrimidin-2-yl)amino)-2-(2,4-difluorophenyl)ethyl)-N-(2,2,2-trifluoroethyl)methanesulfonamide], the IC50 at HDAC1 was more than 30000 nM; at HDAC6, 75 nM.
On to `CCS(=O)(=O)N(C)CC(Nc1ncc(-c2nnc(C(F)F)o2)cn1)c1ccc(F)cc1F` (stereo not drawn) [140(+), N-(2-((5-(5-(difluoromethyl)-1,3,4-oxadiazol-2-yl)pyrimidin-2-yl)amino)-2-(2,4-difluorophenyl)ethyl)-N-methylethanesulfonamide], for which the IC50 was more than 30000 nM on HDAC1 and 58 nM at HDAC6.
Turning to `CCS(=O)(=O)N(CC(Nc1ncc(-c2nnc(C(F)F)o2)cn1)c1ccc(F)cc1F)CC(F)(F)F` (stereo not drawn) [141(+), N-(2-((5-(5-(difluoromethyl)-1,3,4-oxadiazol-2-yl)pyrimidin-2-yl)amino)-2-(2,4-difluorophenyl)ethyl)-N-(2,2,2-trifluoroethyl)ethanesulfonamide], the IC50 on HDAC1 was more than 30000 nM; on HDAC6, 130 nM.
For the compound `CN(CC(Nc1ncc(-c2nnc(C(F)F)o2)cn1)c1ccc(F)cc1F)S(=O)(=O)C1CC1` (stereo not drawn) [143(+), N-(2-((5-(5-(difluoromethyl)-1,3,4-oxadiazol-2-yl)pyrimidin-2-yl)amino)-2-(2,4-difluorophenyl)ethyl)-N-methylcyclopropanesulfonamide], the figures for the IC50 at HDAC1 and on HDAC6 were more than 30000 nM and 53 nM, respectively.
